From US9113629B2, “4-amino-6-(4-substituted-phenyl)-picolinates and 6-amino-2-(4-substituted-phenyl)-pyrimidine-4-carboxylates and their use as herbicides” (DOW AGROSCIENCES LLC, priority 2013, dated 2015)

Tested on: Key Grass and Sedge Weeds as well as Grass Crops
Assay: Post-emergent Test II herbicidal activity (Table 6)
Assay type: in vivo
Conditions: Triticum aestivum, post-emergence, 336 h, TRZSS (wheat), application rate 140 g ai/ha, read-out: Visual Growth Reduction (%) 14 Days After Application, TRZSS
Experimental: (§1) Post-emergent Test II: Seeds or nutlets of the desired test plant species were planted in Sun Gro Metro-Mix® 360 planting mixture, which typically has a pH of 6.0 to 6.8 and an organic matter content of about 30 percent, in plastic pots with a surface area of 64 square centimeters. When required to ensure good germination and healthy plants, a fungicide treatment and/or other chemical or physical treatment was applied. The plants were grown for 7-21 d in a greenhouse with an approximate 15 h photoperiod which was maintained at about 23-29° C. during the day and 22-28° C. during the night. Nutrients and water were added on a regular basis and supplemental lighting was provided with overhead metal halide 1000-Watt lamps as necessary. The plants were employed for testing when they reached the first or second true leaf stage.
(§2) A weighed amount, determined by the highest rate to be tested, of each test compound was placed in a 25 mL glass vial and was dissolved in 4 mL of a 97:3 v/v mixture of acetone and DMSO to obtain concentrated stock solutions. […] The concentrated stock solutions obtained were diluted with 20 mL of an aqueous mixture containing acetone, water, isopropyl alcohol, DMSO. Atplus 411F crop oil concentrate, and Triton® X-155 surfactant in a 48.5:39:10:1.5:1.0:0.02 v/v ratio to obtain spray solutions containing the highest application rates. Additional application rates were obtained by serial dilution of 12 mL of the high rate solution into a solution containing 2 mL of 97:3 v/v mixture of acetone and DMSO and 10 mL of an aqueous mixture containing acetone, water, isopropyl alcohol, DMSO, Atplus 411F crop oil concentrate, and Triton X-155 surfactant in a 48.5:39:10:1.5:1.0:0.02 v/v ratio to obtain ½×, ¼×, ⅛× and 1/16× rates of the high rate. Compound requirements are based upon a 12 mL application volume at a rate of 187 liters per hectare (L/ha). Formulated compounds were applied to the plant material with an overhead Mandel track sprayer equipped with 8002E nozzles calibrated to deliver 187 L/ha over an application area of 0.503 square meters at a spray height of 18 inches (43 cm) above the average plant canopy height. Control plants were sprayed in the same manner with the solvent blank.
(§3) The treated plants and control plants were placed in a greenhouse as described above and watered by subirrigation to prevent wash-off of the test compounds. After 14 d, the condition of the test plants as compared with that of the untreated plants was determined visually and scored on a scale of 0 to 100 percent where 0 corresponds to no injury and 100 corresponds to complete kill.

Structure (SMILES)	pest or weed control at 140 g/ha [%]
COC(=O)c1nc(-c2ccc(C#N)cc2)c(Cl)c(N)c1Cl [Compound 1]	0 to 29
Nc1cc(-c2ccc(OC(F)F)cc2)nc(C(=O)O)c1Cl [Compound 10]	60 to 74
N#Cc1ccc(-c2nc(C(=O)O)c(Cl)c(N)c2Cl)cc1 [Compound 14]	0 to 29
COC(=O)c1nc(-c2ccc(OC(F)F)cc2)c(Cl)c(N)c1Cl [Compound 15]	0 to 29

Same assay, conditions: post-emergence, 336 h, CYPES: yellow nutsedge (Cyperus esculentus), application rate 140 g ai/ha, read-out: Visual Growth Reduction (%) 14 Days After Application, CYPES

Structure (SMILES)	pest or weed control at 140 g/ha [%]
COC(=O)c1nc(-c2ccc(C#N)cc2)c(Cl)c(N)c1Cl [Compound 1]	30 to 44
Nc1cc(-c2ccc(OC(F)F)cc2)nc(C(=O)O)c1Cl [Compound 10]	0 to 29
N#Cc1ccc(-c2nc(C(=O)O)c(Cl)c(N)c2Cl)cc1 [Compound 14]	0 to 29
COC(=O)c1nc(-c2ccc(OC(F)F)cc2)c(Cl)c(N)c1Cl [Compound 15]	0 to 29

Same assay, conditions: post-emergence, 336 h, DIGSA: crabgrass (Digitaria sanguinalis), application rate 140 g ai/ha, read-out: Visual Growth Reduction (%) 14 Days After Application, DIGSA

Structure (SMILES)	pest or weed control at 140 g/ha [%]
COC(=O)c1nc(-c2ccc(C#N)cc2)c(Cl)c(N)c1Cl [Compound 1]	0 to 29
Nc1cc(-c2ccc(OC(F)F)cc2)nc(C(=O)O)c1Cl [Compound 10]	75 to 84
N#Cc1ccc(-c2nc(C(=O)O)c(Cl)c(N)c2Cl)cc1 [Compound 14]	0 to 29
COC(=O)c1nc(-c2ccc(OC(F)F)cc2)c(Cl)c(N)c1Cl [Compound 15]	0 to 29

Same assay, conditions: post-emergence, 336 h, ECHCG: barnyardgrass (Echinochloa crus-galli), application rate 140 g ai/ha, read-out: Visual Growth Reduction (%) 14 Days After Application, ECHCG

Structure (SMILES)	pest or weed control at 140 g/ha [%]
COC(=O)c1nc(-c2ccc(C#N)cc2)c(Cl)c(N)c1Cl [Compound 1]	0 to 29
Nc1cc(-c2ccc(OC(F)F)cc2)nc(C(=O)O)c1Cl [Compound 10]	85 to 94
N#Cc1ccc(-c2nc(C(=O)O)c(Cl)c(N)c2Cl)cc1 [Compound 14]	0 to 29
COC(=O)c1nc(-c2ccc(OC(F)F)cc2)c(Cl)c(N)c1Cl [Compound 15]	0 to 29

Same assay, conditions: post-emergence, 336 h, ORYSA: rice (Oryza sativa), application rate 140 g ai/ha, read-out: Visual Growth Reduction (%) 14 Days After Application, ORYSA

Structure (SMILES)	pest or weed control at 140 g/ha [%]
COC(=O)c1nc(-c2ccc(C#N)cc2)c(Cl)c(N)c1Cl [Compound 1]	0 to 29
Nc1cc(-c2ccc(OC(F)F)cc2)nc(C(=O)O)c1Cl [Compound 10]	0 to 29
N#Cc1ccc(-c2nc(C(=O)O)c(Cl)c(N)c2Cl)cc1 [Compound 14]	0 to 29
COC(=O)c1nc(-c2ccc(OC(F)F)cc2)c(Cl)c(N)c1Cl [Compound 15]	0 to 29

Same assay, conditions: post-emergence, 336 h, SETFA: giant foxtail (Setaria faberi), application rate 140 g ai/ha, read-out: Visual Growth Reduction (%) 14 Days After Application, SETFA

Structure (SMILES)	pest or weed control at 140 g/ha [%]
COC(=O)c1nc(-c2ccc(C#N)cc2)c(Cl)c(N)c1Cl [Compound 1]	0 to 29
Nc1cc(-c2ccc(OC(F)F)cc2)nc(C(=O)O)c1Cl [Compound 10]	95 to 100
N#Cc1ccc(-c2nc(C(=O)O)c(Cl)c(N)c2Cl)cc1 [Compound 14]	0 to 29
COC(=O)c1nc(-c2ccc(OC(F)F)cc2)c(Cl)c(N)c1Cl [Compound 15]	0 to 29

Same assay, conditions: post-emergence, 336 h, SORVU: grain sorghum (Sorghum vulgare), application rate 140 g ai/ha, read-out: Visual Growth Reduction (%) 14 Days After Application, SORVU

Structure (SMILES)	pest or weed control at 140 g/ha [%]
COC(=O)c1nc(-c2ccc(C#N)cc2)c(Cl)c(N)c1Cl [Compound 1]	0 to 29
Nc1cc(-c2ccc(OC(F)F)cc2)nc(C(=O)O)c1Cl [Compound 10]	75 to 84
N#Cc1ccc(-c2nc(C(=O)O)c(Cl)c(N)c2Cl)cc1 [Compound 14]	0 to 29
COC(=O)c1nc(-c2ccc(OC(F)F)cc2)c(Cl)c(N)c1Cl [Compound 15]	0 to 29

Same assay, conditions: post-emergence, 336 h, ZEAMX: maize, corn (Zea mays), application rate 140 g ai/ha, read-out: Visual Growth Reduction (%) 14 Days After Application, ZEAMX

Structure (SMILES)	pest or weed control at 140 g/ha [%]
COC(=O)c1nc(-c2ccc(C#N)cc2)c(Cl)c(N)c1Cl [Compound 1]	0 to 29
Nc1cc(-c2ccc(OC(F)F)cc2)nc(C(=O)O)c1Cl [Compound 10]	60 to 74
N#Cc1ccc(-c2nc(C(=O)O)c(Cl)c(N)c2Cl)cc1 [Compound 14]	0 to 29
COC(=O)c1nc(-c2ccc(OC(F)F)cc2)c(Cl)c(N)c1Cl [Compound 15]	0 to 29

Tested on: not given
Assay: not given
Conditions: not given

melting point [°C]	Structure (SMILES)
133.4 to 134.8	COC(=O)c1nc(-c2ccc(C#N)cc2)c(Cl)c(N)c1Cl [Compound 1]
170.4 to 172.1	Nc1cc(-c2ccc(OC(F)F)cc2)nc(C(=O)O)c1Cl [Compound 10]
178 to 179.7	N#Cc1ccc(-c2nc(C(=O)O)c(Cl)c(N)c2Cl)cc1 [Compound 14]
102.4 to 103.6	COC(=O)c1nc(-c2ccc(OC(F)F)cc2)c(Cl)c(N)c1Cl [Compound 15]

Tested on: Key Broadleaf Weed and Crop Species
Assay: Post-emergent Test II herbicidal activity (Table 5)
Assay type: in vivo
Conditions: post-emergence, 336 h; ABUTH: velvetleaf (Abutilon theophrasti); 140 g ai/ha; post-emergent; 14 days after application; read-out: Visual Growth Reduction (%) 14 Days After Application ABUTH
Experimental: as §1, §2, §3

Structure (SMILES)	pest or weed control at 140 g/ha [%]
COC(=O)c1nc(-c2ccc(C#N)cc2)c(Cl)c(N)c1Cl [Compound 1]	60 to 74
Nc1cc(-c2ccc(OC(F)F)cc2)nc(C(=O)O)c1Cl [Compound 10]	95 to 100
N#Cc1ccc(-c2nc(C(=O)O)c(Cl)c(N)c2Cl)cc1 [Compound 14]	0 to 29
COC(=O)c1nc(-c2ccc(OC(F)F)cc2)c(Cl)c(N)c1Cl [Compound 15]	85 to 94

Same assay, conditions: post-emergence, 336 h; AMARE: redroot pigweed (Amaranthus retroflexus); 140 g ai/ha; post-emergent; 14 days after application; read-out: Visual Growth Reduction (%) 14 Days After Application AMARE

Structure (SMILES)	pest or weed control at 140 g/ha [%]
COC(=O)c1nc(-c2ccc(C#N)cc2)c(Cl)c(N)c1Cl [Compound 1]	60 to 74
Nc1cc(-c2ccc(OC(F)F)cc2)nc(C(=O)O)c1Cl [Compound 10]	95 to 100
N#Cc1ccc(-c2nc(C(=O)O)c(Cl)c(N)c2Cl)cc1 [Compound 14]	0 to 29
COC(=O)c1nc(-c2ccc(OC(F)F)cc2)c(Cl)c(N)c1Cl [Compound 15]	0 to 29

Same assay, conditions: post-emergence, 336 h; BRSNN: oilseed-rape, canola (Brassica napus); 140 g ai/ha; post-emergent; 14 days after application; read-out: Visual Growth Reduction (%) 14 Days After Application BRSNN

Structure (SMILES)	pest or weed control at 140 g/ha [%]
COC(=O)c1nc(-c2ccc(C#N)cc2)c(Cl)c(N)c1Cl [Compound 1]	0 to 29
Nc1cc(-c2ccc(OC(F)F)cc2)nc(C(=O)O)c1Cl [Compound 10]	60 to 74
N#Cc1ccc(-c2nc(C(=O)O)c(Cl)c(N)c2Cl)cc1 [Compound 14]	0 to 29
COC(=O)c1nc(-c2ccc(OC(F)F)cc2)c(Cl)c(N)c1Cl [Compound 15]	0 to 29

Same assay, conditions: post-emergence, 336 h; CHEAL: lambsquarters (Chenopodium album); 140 g ai/ha; post-emergent; 14 days after application; read-out: Visual Growth Reduction (%) 14 Days After Application CHEAL

Structure (SMILES)	pest or weed control at 140 g/ha [%]
COC(=O)c1nc(-c2ccc(C#N)cc2)c(Cl)c(N)c1Cl [Compound 1]	85 to 94
Nc1cc(-c2ccc(OC(F)F)cc2)nc(C(=O)O)c1Cl [Compound 10]	75 to 84
N#Cc1ccc(-c2nc(C(=O)O)c(Cl)c(N)c2Cl)cc1 [Compound 14]	95 to 100
COC(=O)c1nc(-c2ccc(OC(F)F)cc2)c(Cl)c(N)c1Cl [Compound 15]	30 to 44

Same assay, conditions: post-emergence, 336 h; EPHHL: wild poinsettia (Euphorbia heterophylla); 140 g ai/ha; post-emergent; 14 days after application; read-out: Visual Growth Reduction (%) 14 Days After Application EPHHL

Structure (SMILES)	pest or weed control at 140 g/ha [%]
COC(=O)c1nc(-c2ccc(C#N)cc2)c(Cl)c(N)c1Cl [Compound 1]	0 to 29
Nc1cc(-c2ccc(OC(F)F)cc2)nc(C(=O)O)c1Cl [Compound 10]	95 to 100
N#Cc1ccc(-c2nc(C(=O)O)c(Cl)c(N)c2Cl)cc1 [Compound 14]	0 to 29
COC(=O)c1nc(-c2ccc(OC(F)F)cc2)c(Cl)c(N)c1Cl [Compound 15]	0 to 29

Same assay, conditions: post-emergence, 336 h; HELAN: sunflower (Helianthus annuus); 140 g ai/ha; post-emergent; 14 days after application; read-out: Visual Growth Reduction (%) 14 Days After Application HELAN

Structure (SMILES)	pest or weed control at 140 g/ha [%]
COC(=O)c1nc(-c2ccc(C#N)cc2)c(Cl)c(N)c1Cl [Compound 1]	95 to 100
Nc1cc(-c2ccc(OC(F)F)cc2)nc(C(=O)O)c1Cl [Compound 10]	85 to 94
N#Cc1ccc(-c2nc(C(=O)O)c(Cl)c(N)c2Cl)cc1 [Compound 14]	95 to 100
COC(=O)c1nc(-c2ccc(OC(F)F)cc2)c(Cl)c(N)c1Cl [Compound 15]	95 to 100

Same assay, conditions: post-emergence, 336 h; VIOTR: wild pansy (Viola tricolor); 140 g ai/ha; post-emergent; 14 days after application; read-out: Visual Growth Reduction (%) 14 Days After Application VIOTR

Structure (SMILES)	pest or weed control at 140 g/ha [%]
COC(=O)c1nc(-c2ccc(C#N)cc2)c(Cl)c(N)c1Cl [Compound 1]	0 to 29
Nc1cc(-c2ccc(OC(F)F)cc2)nc(C(=O)O)c1Cl [Compound 10]	0 to 29
N#Cc1ccc(-c2nc(C(=O)O)c(Cl)c(N)c2Cl)cc1 [Compound 14]	0 to 29
COC(=O)c1nc(-c2ccc(OC(F)F)cc2)c(Cl)c(N)c1Cl [Compound 15]	0 to 29
